Experimental data from patent publication US11104674B2 (Hoffmann-La Roche Inc., priority 2016, dated 2021).

How the values were obtained:
HBV DNA = HBV DNA assay (real-time qPCR of extracellular HBV DNA); type: cell-based; conditions: Hepatitis B virus, 144 h; Anti HBV DNA production activity in HepG2.2.15 cells; supernatant collected six days after treatment
Protocol: HepG2.2.15 cells (Acs et al. Proc Natl Acad Sci USA, 84, (1987), 4641-4), a constitutively HBV-expressing cell line were cultured in DMEM+Glutamax-I medium (Invitrogen, Carlsbad, Calif., USA), supplemented with 10% fetal bovine serum (Invitrogen) and G418 (Invitrogen) at a final concentration of 200 mg/L and maintained in 5% CO2 at 37° C.
The assay employs real-time qPCR (TaqMan) to directly measure extracellular HBV DNA copy number in the cell supernatant. HepG2.2.15 cells were plated in 96-well microtiter plates before treatment with complete medium (DMEM, Glutamax, 10% FBS, 1% Penicillin/Streptomycin, 250 μg/mL Genetycin, final DMSO concentration is 1%/o). Only the interior wells were utilized to reduce “edge effects” observed during cell culture, the exterior wells were filled with complete medium to help minimize sample evaporation. The HepG2.2.15 cells were treated 1 h later with various concentrations of a test compound in duplicate (top concentration used at 5 μM, 2 μM or 0.5 μM according to the HBsAg IC50 observed, with ⅓ successive dilutions (total of 10 dilutions). Six days following the initial administration of the test compound, the cell culture supernatant was collected; DNA extraction was performed by automated system (Magnapure) and then used in a real-time qPCR/TaqMan assay to determine HBV DNA copy numbers. Antiviral activity was calculated from the reduction in HBV DNA levels (IC50).
The compounds of the present invention were tested for their capacity to inhibit HBV DNA as described herein.

HBsAg = HBsAg assay (chemiluminescence immunoassay of secreted HBsAg); type: cell-based, HBV; conditions: HepG2.2.15 cells, CLIA of culture supernatant
Summary of the method: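 HepG2.2.15 cells, in duplicate, treated with three-fold serial compound dilutions (1% DMSO final); secreted HBsAg in supernatant quantified by chemiluminescence immunoassay; IC50 is the concentration reducing HBsAg secretion by 50% versus the DMSO control.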

[1] = Hepatitis B virus, HepG2.2.15, HBsAg secretion

| Structure (SMILES) | IC50 (HBV DNA) [nM] | IC50 (HBsAg; [1]) [nM] | IC50 (HBsAg; HBsAg secretion) [nM] |
| --- | --- | --- | --- |
| COC1CN(c2cc(F)nc(N3CCc4nc(-c5ncccn5)ncc4C3C)c2)C1 (stereo not drawn) [Example 112, 6-[6-fluoro-4-(3-methoxyazetidin-1-yl)-2-pyridyl]-5-methyl-2-pyrimidin-2-yl-7,8-dihydro-5H-pyrido[4,3-d]pyrimidine] | 0.6 | 6 |  |
| CCS(=O)(=O)N1CCN(c2cc(F)nc(N3CCc4nc(-c5ncccn5)ncc4C3C)c2)CC1 (stereo not drawn) [Example 90, 6-[4-(4-ethylsulfonylpiperazin-1-yl)-6-fluoro-2-pyridyl]-5-methyl-2-pyrimidin-2-yl-7,8-dihydro-5H-pyrido[4,3-d]pyrimidine] | 1.1 | 5 |  |
| CC1c2cnc(-c3ncccn3)nc2CCN1c1cc(N2CC(F)C2)cc(F)n1 (stereo not drawn) [Example 123, 6-[6-fluoro-4-(3-fluoroazetidin-1-yl)-2-pyridyl]-5-methyl-2-pyrimidin-2-yl-7,8-dihydro-5H-pyrido[4,3-d]pyrimidine] | 0.43 | 12 |  |
| COC1CCN(c2cc(F)nc(N3CCc4nc(-c5ncccn5)ncc4C3C)c2)C1 (stereo not drawn) [Example 20, 6-[6-fluoro-4-(3-methoxypyrrolidin-1-yl)-2-pyridyl]-5-methyl-2-pyrimidin-2-yl-7,8-dihydro-5H-pyrido[4,3-d]pyrimidine] | 0.15 | 10 |  |
| CC1c2cnc(-c3ncccn3)nc2CCN1c1cc(N2CCCS2(=O)=O)cc(F)n1 (stereo not drawn) [Example 115, 2-[2-Fluoro-6-(5-methyl-2-pyrimidin-2-yl-7,8-dihydro-5H-pyrido[4,3-d]pyrimidin-6-yl)-4-pyridyl]-1,2-thiazolidine1,1-dioxide] | 3.2 | 4 |  |
| C[C@@H]1c2cnc(-c3ncccn3)nc2CCN1c1cc(N2CCN(S(C)(=O)=O)CC2)cc(F)n1 [Example 97, (−)-6-[6-Fluoro-4-(4-methylsulfonylpiperazin-1-yl)-2-pyridyl]-5-methyl-2-pyrimidin-2-yl-7,8-dihydro-5H-pyrido[4,3-d]pyrimidine] | 1.9 |  | 3 |
| CC1c2cnc(-c3ncccn3)nc2CCN1c1cc(N2CCN(CCC(N)=O)CC2)cc(F)n1 (stereo not drawn) [Example 104, 3-[4-[2-fluoro-6-(5-methyl-2-pyrimidin-2-yl-7,8-dihydro-5H-pyrido[4,3-d]pyrimidin-6-yl)-4-pyridyl]piperazin-1-yl]propanamide] |  | 220 |  |
| CC1CN(c2cc(F)nc(N3CCc4nc(-c5ncccn5)ncc4C3C)c2)CCO1 (stereo not drawn) [Example 4, 4-[2-fluoro-6-(5-methyl-2-pyrimidin-2-yl-7,8-dihydro-5H-pyrido[4,3-d]pyrimidin-6-yl)-4-pyridyl]-2-methyl-morpholine] |  | 8 |  |
| CC1c2cnc(-c3ncccn3)nc2CCN1c1cc(F)cc(N2CCC(C(N)=O)CC2)n1 (stereo not drawn) [Example 55, 1-[4-fluoro-6-(5-methyl-2-pyrimidin-2-yl-7,8-dihydro-5H-pyrido[4,3-d]pyrimidin-6-yl)-2-pyridyl]piperidine-4-carboxamide] |  | 72 |  |
| CC1CCN(c2cc(F)cc(N3CCc4nc(-c5ncccn5)ncc4C3C)n2)C1 (stereo not drawn) [Example 19, 6-[4-fluoro-6-(3-methylpyrrolidin-1-yl)-2-pyridyl]-5-methyl-2-pyrimidin-2-yl-7,8-dihydro-5H-pyrido[4,3-d]pyrimidine] |  | 11 |  |
| CC1c2cnc(-c3ncccn3)nc2CCN1c1cc(N2CCC(C(N)=O)CC2)cc(F)n1 (stereo not drawn) [Example 56, 1-[2-fluoro-6-(5-methyl-2-pyrimidin-2-yl-7,8-dihydro-5H-pyrido[4,3-d]pyrimidin-6-yl)-4-pyridyl]piperidine-4-carboxamide] |  | 37 |  |
| CC1c2cnc(-c3ncccn3)nc2CCN1c1cc(N2CCCC2=O)cc(F)n1 (stereo not drawn) [Example 113, 1-[2-Fluoro-6-(5-methyl-2-pyrimidin-2-yl-7,8-dihydro-5H-pyrido[4,3-d]pyrimidin-6-yl)-4-pyridyl]pyrrolidin-2-one] |  | 4 |  |
| CC1c2cnc(-c3ncccn3)nc2CCN1c1cc(N2CCC(C(=O)O)C2)cc(F)n1 (stereo not drawn) [Example 38, 1-[2-fluoro-6-(5-methyl-2-pyrimidin-2-yl-7,8-dihydro-5H-pyrido[4,3-d]pyrimidin-6-yl)-4-pyridyl]pyrrolidine-3-carboxylic acid] |  | 1010 |  |
| CC1c2cnc(-c3ncccn3)nc2CCN1c1cc(N2CCN(S(C)(=O)=O)CC2)cc(F)n1 (single isomer, unassigned) [Example 98, (+)-6-[6-Fluoro-4-(4-methylsulfonylpiperazin-1-yl)-2-pyridyl]-5-methyl-2-pyrimidin-2-yl-7,8-dihydro-5H-pyrido[4,3-d]pyrimidine] |  |  | 410 |
| CC1c2cnc(-c3ccccn3)nc2CCN1c1cc(F)cc(N2CCC(C(=O)NS(C)(=O)=O)C2)n1 (stereo not drawn) [Example 85, 1-[4-fluoro-6-[5-methyl-2-(2-pyridyl)-7,8-dihydro-5H-pyrido[4,3-d]pyrimidin-6-yl]-2-pyridyl]-N-methylsulfonyl-pyrrolidine-3-carboxamide] |  | 264 |  |
| CC1c2cnc(-c3ncccn3)nc2CCN1c1cc(N(C)S(=O)(=O)C2CC2)cc(F)n1 (stereo not drawn) [Example 160, N-[2-fluoro-6-(5-methyl-2-pyrimidin-2-yl-7,8-dihydro-5H-pyrido[4,3-d]pyrimidin-6-yl)-4-pyridyl]-N-methyl-cyclopropanesulfonamide] |  | 6 |  |
| CC1c2cnc(-c3ncccn3)nc2CCN1c1cc(F)cc(N2CC(CO)C2)n1 (stereo not drawn) [Example 136, [1-[4-fluoro-6-(5-methyl-2-pyrimidin-2-yl-7,8-dihydro-5H-pyrido[4,3-d]pyrimidin-6-yl)-2-pyridyl]azetidin-3-yl]methanol] |  | 23 |  |
| CC1c2cnc(-c3ccccn3)nc2CCN1c1cc(F)cc(N2CCC(C(N)=O)C2)n1 (stereo not drawn) [Example 61, 1-[4-fluoro-6-[5-methyl-2-(2-pyridyl)-7,8-dihydro-5H-pyrido[4,3-d]pyrimidin-6-yl]-2-pyridyl]pyrrolidine-3-carboxamide] |  | 22 |  |
| CC1c2cnc(-c3ncccn3)nc2CCN1c1cc(NC2CCS(=O)(=O)CC2)cc(F)n1 (stereo not drawn) [Example 138, N-(1,1-dioxothian-4-yl)-2-fluoro-6-(5-methyl-2-pyrimidin-2-yl-7,8-dihydro-5H-pyrido[4,3-d]pyrimidin-6-yl)pyridin-4-amine] |  | 663 |  |
| CC1c2cnc(-c3ncccn3)nc2CCN1c1cc(F)cc(NS(=O)(=O)c2ccccc2)n1 (stereo not drawn) [Example 78, N-[4-fluoro-6-(5-methyl-2-pyrimidin-2-yl-7,8-dihydro-5H-pyrido[4,3-d]pyrimidin-6-yl)-2-pyridyl]benzenesulfonamide] |  | 263 |  |
| CC1c2cnc(-c3ncccn3)nc2CCN1c1cc(N2CCCC2C(=O)O)cc(F)n1 (stereo not drawn) [Example 32, 1-[2-fluoro-6-(5-methyl-2-pyrimidin-2-yl-7,8-dihydro-5H-pyrido[4,3-d]pyrimidin-6-yl)-4-pyridyl]pyrrolidine-2-carboxylic acid] |  | 391 |  |
| CC1c2cnc(-c3ccccn3)nc2CCN1c1cc(N2CCC(C(N)=O)CC2)cc(F)n1 (stereo not drawn) [Example 73, 1-[2-fluoro-6-[5-methyl-2-(2-pyridyl)-7,8-dihydro-5H-pyrido[4,3-d]pyrimidin-6-yl]-4-pyridyl]piperidine-4-carboxamide] |  | 10 |  |
| CC1c2cnc(-c3ncccn3)nc2CCN1c1cc(F)cc(N2CCCC2C(=O)O)n1 (stereo not drawn) [Example 33, 1-[4-fluoro-6-(5-methyl-2-pyrimidin-2-yl-7,8-dihydro-5H-pyrido[4,3-d]pyrimidin-6-yl)-2-pyridyl]pyrrolidine-2-carboxylic acid] |  | 93 |  |
| CC1c2cnc(-c3ncccn3)nc2CCN1c1cc(NC2CCN(S(C)(=O)=O)CC2)cc(F)n1 (stereo not drawn) [Example 96, 2-Fluoro-6-(5-methyl-2-pyrimidin-2-yl-7,8-dihydro-5H-pyrido[4,3-d]pyrimidin-6-yl)-N-(1-methylsulfonyl-4-piperidyl)pyridin-4-amine] |  | 125 |  |
